Counter-ions that a name gives are not always drawn.
Assays:
Assay type in all cases: physicochemical
[1] = Gravimetric moisture sorption/desorption (GMSD) isotherms; conditions: for hygroscopicity according to the GMSD isotherms: 25 ± 0.1°C, 0 to 95% RH; for water: when measured at 0 to 95% RH and 25 ± 0.1°C
Procedure: Gravimetric moisture sorption/desorption
Gravimetric moisture sorption/desorption (GMSD) isotherms were recorded with an SPSx-1µ moisture sorption analyzer (ProUmid, Ulm). The measurement cycle was started at ambient relative humidity (RH) of 30%. Relative humidity was then decreased to 5% RH in 5% steps, followed by a further decrease to 3% RH and to 0% RH. For this isotherm, as black filled square with a white x inside is used in the respective figures. Afterwards RH was increased from 0% to 95% RH in a sorption cycle and decreased to 0 % in a desorption cycle in 5% steps. Finally RH was increased to 40% RH in 5% steps. As to the isotherm obtained by the last step, a black filled square with a white star inside is used as symbol in the respective figures.
The time per step was set to a minimum of 2 hours and a maximum of 6 hours. If an equilibrium condition with a constant mass of ± 0.01 % within 1 hour was reached before the maximum time for all examined samples the sequential humidity step was applied before the maximum time of 6 hours. If no equilibrium was achieved the consecutive humidity step was applied after the maximum time of 6 hours. The temperature was 25 ± 0.1°C.

[2] = Determination of the moisture stability (climate chamber, PXRD analysis)
Procedure: Powder X-ray diffraction (PXRD) was performed with a PANalytical X'Pert PRO diffractometer equipped with a theta/theta coupled goniometer in transmission geometry, Cu-Kα1,2 radiation (wavelength 0.15419 nm) with a focusing mirror and a solid state PIXcel detector. Diffractograms were recorded at a tube voltage of 45 kV and a tube current of 40 mA, applying a stepsize of 0.013° 2-Theta with 40s per step (255 channels) in the angular range of 2° to 40° 2-Theta at ambient conditions. Determination of the moisture stability Moisture stability at accelerated stability conditions was performed in a Memmert constant climate chamber HPP110.

[3] = Determination of the solubility in water (solvent addition technique); conditions: 25 °C, thermodynamic from solid, in water at 25°C, estimated by solvent addition
Procedure: About 10 mg of crystalline betrixaban salt were weighed out into a vial. Water was added to the vial in aliquots of 500 µL and 200 µL until the salt was dissolved. In between the water additions the samples was sonicated for about 5 min, followed by shaking at 25°C for about 10 to 15 min.

[4] = listed as crystalline form B of betrixaban hydrobromide, hydrobromide
[5] = 8 weeks at 40°C and a relative humidity of 75%
[6] = listed as crystalline form A of betrixaban hydrochloride, hydrochloride

hygroscopicity according to the GMSD isotherms [1, 4] | water [1, 4] [%] | PXRD pattern after storage compared with the initial pattern (moisture stability test) [2, 5] | solubility [3] [µg/mL] | hygroscopicity according to the GMSD isotherms [1, 6] | water [1, 6] [%] | PXRD pattern after storage compared with the initial pattern (moisture stability test) ([2]; 4 weeks at 40°C and a relative humidity of 75%) | Compound
moderately hygroscopic | ≤ 1.9 | essentially identical |  |  |  |  | COc1ccc(NC(=O)c2ccc(C(=N)N(C)C)cc2)c(C(=O)Nc2ccc(Cl)cn2)c1 [Betrixaban hydrobromide, form B, betrixaban hydrobromide]
 |  | essentially identical | > 5000 | non-hygroscopic | ≤ 0.2 |  | COc1ccc(NC(=O)c2ccc(C(=N)N(C)C)cc2)c(C(=O)Nc2ccc(Cl)cn2)c1 [Betrixaban hydrochloride, form A, betrixaban hydrochloride]
 |  |  |  |  |  | essentially identical | COc1ccc(NC(=O)c2ccc(C(=N)N(C)C)cc2)c(C(=O)Nc2ccc(Cl)cn2)c1 [Betrixaban hydrochloride, form B, betrixaban hydrochloride]
